# Data taken from patent publication US20040043420A1, “Method of identifying conformation-sensitive binding peptides and uses thereof” (priority 2003, published 2004).
# T1: androgen receptor (Homo sapiens, UniProt P10275)
# T1 sequence (P10275 1-920): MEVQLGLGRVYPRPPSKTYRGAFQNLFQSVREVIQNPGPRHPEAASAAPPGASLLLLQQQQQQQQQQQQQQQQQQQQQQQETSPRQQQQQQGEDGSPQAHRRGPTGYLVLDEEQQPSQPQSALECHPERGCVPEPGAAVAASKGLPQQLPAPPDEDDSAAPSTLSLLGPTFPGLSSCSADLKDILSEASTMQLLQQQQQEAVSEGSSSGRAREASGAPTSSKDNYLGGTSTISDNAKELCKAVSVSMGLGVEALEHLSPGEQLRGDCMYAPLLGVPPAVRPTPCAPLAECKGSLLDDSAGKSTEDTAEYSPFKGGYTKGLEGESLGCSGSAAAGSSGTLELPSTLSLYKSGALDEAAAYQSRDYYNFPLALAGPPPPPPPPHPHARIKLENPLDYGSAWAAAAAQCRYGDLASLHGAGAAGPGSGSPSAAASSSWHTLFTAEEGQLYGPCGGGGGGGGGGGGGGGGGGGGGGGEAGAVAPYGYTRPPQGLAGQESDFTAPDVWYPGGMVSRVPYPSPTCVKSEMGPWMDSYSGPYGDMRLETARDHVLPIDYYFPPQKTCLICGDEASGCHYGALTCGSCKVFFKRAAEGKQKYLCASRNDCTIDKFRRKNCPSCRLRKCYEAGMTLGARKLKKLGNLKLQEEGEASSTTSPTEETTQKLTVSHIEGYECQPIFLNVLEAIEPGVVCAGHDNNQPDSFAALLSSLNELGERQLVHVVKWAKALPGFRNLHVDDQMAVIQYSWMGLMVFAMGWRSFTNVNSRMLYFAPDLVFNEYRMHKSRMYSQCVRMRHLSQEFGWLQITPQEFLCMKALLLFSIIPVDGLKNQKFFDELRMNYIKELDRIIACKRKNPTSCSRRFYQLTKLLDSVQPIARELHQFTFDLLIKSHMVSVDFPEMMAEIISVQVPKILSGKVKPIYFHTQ
# T2: ER α (UniProt P03372 1-595, limits assumed)
# T2 construct: also called estrogen receptor α; ERα-ERE
# T2 sequence (looked up): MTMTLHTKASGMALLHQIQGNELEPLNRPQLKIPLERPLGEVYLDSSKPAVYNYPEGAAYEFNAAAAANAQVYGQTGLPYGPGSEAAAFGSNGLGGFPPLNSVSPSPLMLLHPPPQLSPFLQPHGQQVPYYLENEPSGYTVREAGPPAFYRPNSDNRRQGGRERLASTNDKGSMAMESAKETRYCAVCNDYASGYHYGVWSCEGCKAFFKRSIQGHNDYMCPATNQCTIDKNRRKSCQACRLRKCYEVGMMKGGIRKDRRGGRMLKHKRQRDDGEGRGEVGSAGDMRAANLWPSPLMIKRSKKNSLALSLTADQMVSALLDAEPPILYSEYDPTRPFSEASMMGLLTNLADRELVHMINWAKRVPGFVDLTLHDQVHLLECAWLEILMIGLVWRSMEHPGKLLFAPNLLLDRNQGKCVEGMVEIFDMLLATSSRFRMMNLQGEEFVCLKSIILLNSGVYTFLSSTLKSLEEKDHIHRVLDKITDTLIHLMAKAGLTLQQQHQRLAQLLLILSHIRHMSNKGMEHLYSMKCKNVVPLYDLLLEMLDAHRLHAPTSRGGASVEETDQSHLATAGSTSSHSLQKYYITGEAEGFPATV
# T3: Gal4 transcriptional activation domain (AD) fused in frame with AR (yeast, UniProt P10275 1-920, limits assumed)
# T3 sequence (looked up): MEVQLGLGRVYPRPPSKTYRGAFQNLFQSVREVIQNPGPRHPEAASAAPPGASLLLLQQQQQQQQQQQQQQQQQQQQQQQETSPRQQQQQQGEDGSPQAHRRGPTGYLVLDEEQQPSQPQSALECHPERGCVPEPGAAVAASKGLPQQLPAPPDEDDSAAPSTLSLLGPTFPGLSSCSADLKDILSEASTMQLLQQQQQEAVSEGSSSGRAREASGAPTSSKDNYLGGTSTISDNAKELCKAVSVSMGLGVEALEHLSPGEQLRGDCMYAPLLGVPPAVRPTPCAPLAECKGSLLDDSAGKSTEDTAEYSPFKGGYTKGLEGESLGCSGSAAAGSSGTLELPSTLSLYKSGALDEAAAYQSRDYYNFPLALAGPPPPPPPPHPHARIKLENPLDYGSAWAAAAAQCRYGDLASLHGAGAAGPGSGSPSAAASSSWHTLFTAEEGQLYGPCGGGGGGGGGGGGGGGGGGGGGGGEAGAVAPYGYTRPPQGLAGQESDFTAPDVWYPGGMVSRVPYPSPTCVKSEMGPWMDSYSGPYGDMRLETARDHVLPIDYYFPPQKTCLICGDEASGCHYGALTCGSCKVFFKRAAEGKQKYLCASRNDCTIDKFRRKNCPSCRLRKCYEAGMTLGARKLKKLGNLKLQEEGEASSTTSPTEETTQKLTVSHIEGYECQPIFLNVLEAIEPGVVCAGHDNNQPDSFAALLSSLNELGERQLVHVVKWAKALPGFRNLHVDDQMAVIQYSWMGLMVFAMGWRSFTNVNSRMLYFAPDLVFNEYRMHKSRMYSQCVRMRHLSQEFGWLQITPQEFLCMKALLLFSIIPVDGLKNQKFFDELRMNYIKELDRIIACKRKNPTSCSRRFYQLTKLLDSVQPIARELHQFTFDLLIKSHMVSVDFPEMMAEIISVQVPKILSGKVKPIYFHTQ
# Key:
# [1] = molecular target: T1, androgen receptor; assay: Yeast two-hybrid screening of unbiased X15 peptide library, ligand-induced β-galactosidase activity (FIG. 3, Table 503); type: cell-based; parameters: expressed in transfected cells; host or cells: Saccharomyces cerevisiae PJ69-4α; settings: for Yeast Specificity Graph (FIG. 3): CPA: ligand CPA; for Yeast Specificity Graph (FIG. 3): DHT: ligand DHT; for Yeast Specificity Graph (FIG. 3): RU: ligand RU; for Yeast Specificity Graph (FIG. 3): No Lig: no ligand; for Yeast Specificity Graph (FIG. 3): MPA: ligand MPA; for Yeast Specificity Graph (FIG. 3): Test: ligand Test
# Text: Our library contained predominantly 15 random amino acid residues/peptide in order to identify motifs that might interact with nuclear receptor domains. If ligand is provided to the cells, one can screen for peptides that interact with the ligand-bound receptor. […] Included at the ends of the oligonucleotide were the synthetic restriction endonuclease cleavage sites, EcoRI or Mfe I (5′ end) and Sal I (3′ end). Oligonucleotides were annealed, then cleaved with excess restriction endonuclease and purified on agarose gels. The purified set of oligonucleotides was subcloned as an in-frame carboxy-terminal fusion to a Gal4 DNA binding domain (plasmid vector pMA424 derivative). […] The transformation mix was divided and grown on plates of selective media containing ligand and 25 mM 3-aminotriazole at 30° C. until colonies appeared in 3-7 days. […] Dihydrotestosterone (DHT) and medroxyprogesterone (MPA) were added to the media at 100 nM to identify peptides that interact with the receptor in the presence of ligand. After colonies appeared they were picked and dispersed into individual wells of a 96-well plate containing rich media (YPD).
# To determine ligand dependence, two microliter aliquots were removed from the cell suspension, and arrayed and spotted onto each of two rectangular agar plates, one with 100 nM ligand and one without ligand. Growth was monitored daily.
# A secondary test of ligand dependent activation was performed using the integrated GAL4-driven lacZ gene. Cell suspensions of the initial positive clones were diluted 20-fold into 20 microliters of rich media in a microplate and grown overnight at 30° C. in the presence and absence of ligand. Microplates were centrifuged for 5 minutes at 3000 rpm in a swinging table top centrifuge to pellet the yeast cells, and the overlying media was aspirated. […] An OD650 density determination was made to normalize the β-galactosidase activity. β-galactosidase activity was monitored following the addition of buffer containing chlorophenol red-1-galactopyranoside (CPRG) (Boehringer Mannheim) substrate at a final concentration of 0.5 mM. […] The maximum slope value of this measurement was normalized to cell density from the initial OD650 value, and the relative ligand dependence of β-galactosidase was determined by comparing the values plus and minus ligand.
# In FIG. 3, all of these ligands were tested. The plasmids from true positives were extracted using standard yeast extraction protocols and re-transformed to verify the positive phenotype.
# [2] = molecular target: T1, androgen receptor; type: cell-based; parameters: expressed in transfected cells; settings: for Mammalian Cell Specificity Graph (FIG. 4): DHT: ligand DHT; for Mammalian Cell Specificity Graph (FIG. 4): MPA: ligand MPA; for Mammalian Cell Specificity Graph (FIG. 4): RU486: ligand RU486
# Text: We used a mammalian two-hybrid system to determine specificities of the AR-binding peptides previously identified, through screening of the aforementioned yeast library, as ligand-dependent in their binding activity. Ligand was provided to the cells so the interaction could be observed. The human hepatoma cell line, Huh-7, was used as the recipient of two-hybrid vectors, pM and pVP16 (Clontech) (FIGS. 6A and 6B), containing fusions with peptide and AR, respectively. According to Clontech literature, the Clontech vectors pM and VP16 generate fusions of protein X with the GAL4 DNA-BD and fusions of protein Y with the VP16AD, in the Mammalian MM Two-Hybrid Assay Kit (#K1602-1). (Note: pM and VP16 contain unique cloning sites in the same order and reading frame as the DNA-BD and AD, respectively, vectors in the yeast […] Two-Hybrid Systems.) A third vector, pG5CAT, provides a CAT reporter gene under the control of a GAL4-responsive element and minimal promoter of the adenovirus E1b. The three vectors are cotransfected into any suitable mammalian host cell line by standard methods. The interaction between proteins X and Y is then assayed by measuring CAT gene expression by any standard method. In the absence-of activation (i.e., no protein-protein interaction), the minimal E1b promoter will not express significant levels of CAT.
# Briefly, cells are seeded in a 24-well culture plate to a density of 50-80% confluence in phenol red-free media containing charcoal-dextran stripped fetal bovine serum (10%). Following incubation overnight, cells are transfected with plasmids pM-peptide, pVP16-AR, pCMV-b-gal, and p5XGAL-Luc3 DNAs using lipofectamine 2000 (LifeTech) according to the manufacturer's protocol. Transfections are allowed to proceed for 6 hours and the transfection media is aspirated and replaced with recovery media for 18 hours. Following the recovery period, cells are treated with compound for 24 hours prior to cell harvesting. Cells are washed with PBS and then lysed using the lysis buffer from the Galacto-Light Plus β-galactosidase assay kit (Tropix). Assays for luciferase and β-galactosidase were performed as described by the manufacturer. Peptide/AR interactions are described in terms of the luciferase activity normalized for transfection efficiency using β-galactosidase activity (see FIG. 4A). Two types of useful information arose from these methods: 1) we generated a panel of useful peptide probes to analyze the conformational state of AR, and 2) we “fingerprinted” AR modulators with respect to AR conformation (FIG. 4B). […] FIG. 4B is the converse of 4A. It compares the ability of six ligands (DHT, MPA, CYP, RU486, FLUT and DHEAs to interact with AR in the presence of each of four peptides (D30, 5G11, B8H3 and […]). Thus, it is a “fingerprint” of each of the six ligands using a four peptide panel. (Note that “1269” and D30″ refer to the same peptide.)
# [3] = molecular target: T2, ER α; assay: phage isolated on ERα-ERE; Estradiol
# [4] = molecular target: T3, Gal4 transcriptional activation domain …; assay: cell-based or functional assay
Yeast Specificity Graph (FIG. 3): CPA [1],Yeast Specificity Graph (FIG. 3): DHT [1],Yeast Specificity Graph (FIG. 3): RU [1],Yeast Specificity Graph (FIG. 3): No Lig [1],binding result [3],Molecule,also measured
0.2919,1.719,0.5,0.3711,–,EFPELLAMTRWGRHAALLEPQRLPPPRTTTQPQTEFERMFFFTRPMRTTGLLDLOPS* [B2A7],–
0.9726,3.964,0.9,0.6382,–,EFRSSVFEQMYLCTGGSLDLOPS* [B5G11],Mammalian Cell Specificity Graph (FIG. 4): CYP. [2]: 4.462 Relative Light Units; Mammalian Cell Specificity Graph (FIG. 4): DHT [2]: 15.84 Relative Light Units; Mammalian Cell Specificity Graph (FIG. 4): MPA [2]: 8.029 Relative Light Units; Mammalian Cell Specificity Graph (FIG. 4): RU486 [2]: 0.1051 Relative Light Units; Mammalian Cell Specificity Graph (FIG. 4): no compound [2]: 0.05028 Relative Light Units
8.592,24.12,6.8,2.53,–,EFRQSFVSEILGGGWLPLDLOPS [M2H3],Fold induction [1]: 10; Yeast Specificity Graph (FIG. 3): MPA [1]: 19.25; Yeast Specificity Graph (FIG. 3): Test [1]: 26.57
0.3955,0.6163,0.4,0.8753,–,EFVNWDAVVPWSELVALLDLOPS [B8A10],Fold induction [1]: 1
0.3927,3.807,−0.0,0.1737,–,EFHSRLRVEVVSWGIGSTCSQANSGRISYDL* [B8H3],Mammalian Cell Specificity Graph (FIG. 4): CYP. [2]: 10.47 Relative Light Units; Mammalian Cell Specificity Graph (FIG. 4): DHT [2]: 11.6 Relative Light Units; Mammalian Cell Specificity Graph (FIG. 4): MPA [2]: 11.33 Relative Light Units; Mammalian Cell Specificity Graph (FIG. 4): RU486 [2]: 3.879 Relative Light Units; Mammalian Cell Specificity Graph (FIG. 4): no compound [2]: 0.1316 Relative Light Units; Fold induction [1]: 22
–,–,–,–,–,HPTHSSRLWELLMEATPTM [D30],Mammalian Cell Specificity Graph (FIG. 4): CYP. [2]: 11.18 Relative Light Units; Mammalian Cell Specificity Graph (FIG. 4): DHT [2]: 12.59 Relative Light Units; Mammalian Cell Specificity Graph (FIG. 4): MPA [2]: 15.62 Relative Light Units; Mammalian Cell Specificity Graph (FIG. 4): RU486 [2]: 0.8461 Relative Light Units; Mammalian Cell Specificity Graph (FIG. 4): no compound [2]: 0.03854 Relative Light Units
–,–,–,–,binds,SRSPILTHLLSLGSR [2E],–
–,–,–,–,–,B23H12 (peptide) MKLLSSIEQACDICRLKKLKCSKEKPKCAKCLKNNWECRYSPKTKRSPLTRAHLTEVESRLERLEQLFLLIFPREDLDMILKMDSLQDIKALLTGLFVQDNVNKDAVTDRLASVETDMPLTLRQHRISATSSSEESSNKGQRQLTVSEFPELLAMTRWGRHAALLEPQRLPPPRTTTQPQTEFERMFFFTRPMRTTGLLDLQPS,"β-galactosidase activity (yeast two-hybrid), MPA [4]: 1.31; β-galactosidase activity (yeast two-hybrid), Test [4]: 2.44"
–,–,–,–,binds,HSHPLPPLLSRLLTGG [E1-4],–
–,–,–,–,binds,SSTGILWKLLTAESR [3E],–
–,–,–,–,binds,SSHGILWRLLSEGSR [9E],–
–,–,–,–,binds,SRLTCLLQSNGWDSEQCSR [E1-7],–
–,–,–,–,binds,HSHNHHSPWLFRLLGG [E1-1],–
–,–,–,–,binds,HSHPHHSHLLYKLMGG [E1-3],–

Molecule,Yeast Specificity Graph (FIG. 3): CPA [1],Yeast Specificity Graph (FIG. 3): DHT [1],Yeast Specificity Graph (FIG. 3): RU [1],Yeast Specificity Graph (FIG. 3): No Lig [1],binding result [3],also measured
EFRFPFHEMVREWESMGLERVRYAEP [M4D1],−0.03955,0.3948,0.1,0,–,Yeast Specificity Graph (FIG. 3): MPA [1]: 1.698; Yeast Specificity Graph (FIG. 3): Test [1]: 0.1337
